Data from US20120083522A1, “MODULATION OF INFLAMMATORY RESPONSES BY FACTOR XI” (Isis Pharmaceuitcals, inc., priority 2009, published 2012).
In the oligonucleotide strings, read from the 5' end, every base follows the letter of its sugar. An asterisk marks phosphorothioate; unmarked linkages are phosphodiester. Other units and linkages are bracketed, terminal groups are in braces. A string of capitals states the bases alone. e = 2'-O-(2-methoxyethyl) (MOE); [5mC] = 5-methylcytosine; d = 2'-deoxy (DNA)

Columns and labels:
Format in all cases: cell-based
human Factor XI mRNA [1] = assay: Antisense inhibition in HepG2 cells by microwalk gapmers, 75 nM, lipofectin (Example 3); conditions: HepG2 cells, 75 nM
Procedure: These gapmers were designed by creating gapmers shifted slightly upstream and downstream (i.e. “microwalk”) of the original gapmers from Table 3. Gapmers were also created with various motifs, e.g. 5-10-5 MOE, 3-14-3 MOE, and 2-13-5 MOE. These gapmers were tested in vitro. Cultured HepG2 cells at a density of 10,000 cells per well were transfected using lipofectin reagent with 75 nM antisense oligonucleotide. After a treatment period of approximately 24 hours, RNA was isolated from the cells and Factor XI mRNA levels were measured by quantitative real-time PCR. Factor XI mRNA levels were adjusted according to total RNA content, as measured by RIBOGREEN®. Results are presented as percent inhibition of Factor XI, relative to untreated control cells.
The chimeric antisense oligonucleotides in Table 4 were designed as 5-10-5 MOE, 3-14-3 MOE, and 2-13-5 MOE gapmers. The first listed gapmers in Table 4 are the original gapmers (see Table 3) from which the remaining gapmers were designed via microwalk and are designated by an asterisk. The 5-10-5 gapmers are 20 nucleotides in length, wherein the central gap segment is comprised of 10 2′-deoxynucleotides and is flanked on both sides (in the 5′ and 3′ directions) by wings comprising 5 nucleotides each. The 3-14-3 gapmers are 20 nucleotides in length, wherein the central gap segment is comprised of 14 2′-deoxynucleotides and is flanked on both sides (in the 5′ and 3′ directions) by wings comprising 3 nucleotides each. The 2-13-5 gapmers are 20 nucleotides in length, wherein the central gap segment is comprised of 13 2′-deoxynucleotides. The central gap is flanked on the 5′ end with a wing comprising 2 nucleotides and on the 3′ end with a wing comprising 5 nucleotides. For each of the motifs (5-10-5, 3-14-3, and 2-13-5), each nucleotide in the 5′ wing segment and each nucleotide in the 3′ wing segment has a 2′-MOE modification. The internucleoside linkages throughout each gapmer are phosphorothioate (P═S) linkages. All cytidine residues throughout each gapmer are 5-methylcytidines. “Target start site” indicates the 5′-most nucleotide to which the gapmer is targeted. “Target stop site” indicates the 3′-most nucleotide to which the gapmer is targeted. Each gapmer listed in Table 4 is targeted to SEQ ID NO: 1 (GENBANK Accession No. NM_000128.3).

human Factor XI mRNA [2] = assay: Dose-dependent inhibition in HepG2 cells, lipofectin (Example 4); conditions: 16 hours
Procedure: (§1) Cells were plated at a density of 10,000 cells per well and transfected using lipofectin reagent with 9.375 nM, 18.75 nM, 37.5 nM and 75 nM concentrations of antisense oligonucleotide, as specified in Table 9. After a treatment period of approximately 16 hours, RNA was isolated from the cells and Factor XI mRNA levels were measured by quantitative real-time PCR. Human Factor XI primer probe set RTS 2966 was used to measure mRNA levels. Factor XI mRNA levels were adjusted according to total RNA content, as measured by RIBOGREEN®. Results are presented as percent inhibition of Factor XI, relative to untreated control cells.

human Factor XI mRNA [3] = assay: Dose-dependent inhibition in HepG2 cells, electroporation (Example 4); conditions: 16 hours
Procedure: as §1, with “The gapmers were also transfected via electroporation and their dose dependent inhibition of human Factor XI mRNA was measured. Cells” for “Cells”, “20,000” for “10,000”, “via electroporation” for “using lipofectin reagent”, “0.7 μM, 2.2 μM, 6.7 μM,” for “9.375 nM, 18.75 nM, 37.5 nM”, “20 μM” for “75 nM”, “10.” for “9.”

[4] = oligonucleotides targeted to nucleobases 1062 to 1091 of SEQ ID NO: 1
[5] = oligonucleotides targeted to nucleobases 738 to 762 of SEQ ID NO: 1
[6] = oligonucleotides targeted to nucleobases 1018 to 1042 of SEQ ID NO: 1

| Substance | percent inhibition of Factor XI mRNA, relative to untreated control cells (human Factor XI mRNA [2]; 9.375 nM) [%] | percent inhibition of Factor XI mRNA, relative to untreated control cells (human Factor XI mRNA [2]; 18.75 nM) [%] | percent inhibition of Factor XI mRNA, relative to untreated control cells (human Factor XI mRNA [2]; 37.5 nM) [%] | percent inhibition of Factor XI mRNA, relative to untreated control cells (human Factor XI mRNA [2]; 75 nM) [%] | percent inhibition of Factor XI mRNA, relative to untreated control cells (human Factor XI mRNA [3]; 0.7 μM) [%] | percent inhibition of Factor XI mRNA, relative to untreated control cells (human Factor XI mRNA [3]; 2.2 μM) [%] | percent inhibition of Factor XI mRNA, relative to untreated control cells (human Factor XI mRNA [3]; 6.7 μM) [%] | percent inhibition of Factor XI mRNA, relative to untreated control cells (human Factor XI mRNA [3]; 20 μM) [%] | further results |
| --- | --- | --- | --- | --- | --- | --- | --- | --- | --- |
| 412215 (antisense eA*eT*eT*e[5mC]*eT*dT*dT*dG*dG*dG*d[5mC]*d[5mC]*dA*dT*dT*e[5mC]*e[5mC]*eT*eG*eG) [compound 412215] |  |  |  |  |  |  |  |  | % inhibition of human Factor XI mRNA levels (human Factor XI mRNA [1]; [4]): 82% |
| 416827 (antisense eT*eA*eT*eG*e[5mC]*d[5mC]*d[5mC]*dT*dT*d[5mC]*dA*dT*dG*dT*d[5mC]*eT*eA*eG*eG*eT) [compound 416827] | 31 | 42 | 62 | 77 | 37 | 68 | 87 | 92 |  |
| 416830 (antisense eT*e[5mC]*e[5mC]*eG*eT*dG*d[5mC]*dA*dT*d[5mC]*dT*dT*dT*d[5mC]*dT*eT*eG*eG*e[5mC]*eA) [compound 416830] |  |  |  |  |  |  |  |  | % inhibition of human Factor XI mRNA levels (human Factor XI mRNA [1]; [5]): 81% |
| 416831 (antisense eA*eT*e[5mC]*e[5mC]*eG*dT*dG*d[5mC]*dA*dT*d[5mC]*dT*dT*dT*d[5mC]*eT*eT*eG*eG*e[5mC]) [compound 416831] |  |  |  |  |  |  |  |  | % inhibition of human Factor XI mRNA levels (human Factor XI mRNA [1]; [5]): 91% |
| 416832 (antisense e[5mC]*eA*eT*e[5mC]*e[5mC]*dG*dT*dG*d[5mC]*dA*dT*d[5mC]*dT*dT*dT*e[5mC]*eT*eT*eG*eG) [compound 416832] |  |  |  |  |  |  |  |  | % inhibition of human Factor XI mRNA levels (human Factor XI mRNA [1]; [5]): 79% |
| 416833 (antisense eT*e[5mC]*eA*eT*e[5mC]*d[5mC]*dG*dT*dG*d[5mC]*dA*dT*d[5mC]*dT*dT*eT*e[5mC]*eT*eT*eG) [compound 416833] |  |  |  |  |  |  |  |  | % inhibition of human Factor XI mRNA levels (human Factor XI mRNA [1]; [5]): 65% |
| 416834 (antisense eG*eT*e[5mC]*eA*eT*d[5mC]*d[5mC]*dG*dT*dG*d[5mC]*dA*dT*d[5mC]*dT*eT*eT*e[5mC]*eT*eT) [compound 416834] |  |  |  |  |  |  |  |  | % inhibition of human Factor XI mRNA levels (human Factor XI mRNA [1]; [5]): 58% |
| 416835 (antisense eA*e[5mC]*e[5mC]*eG*eG*dG*dA*dT*dG*dA*dT*dG*dA*dG*dT*eG*e[5mC]*eA*eG*eA) [compound 416835] |  |  |  |  |  |  |  |  | % inhibition of human Factor XI mRNA levels (human Factor XI mRNA [1]; [6]): 83% |
| 416836 (antisense eA*eA*e[5mC]*e[5mC]*eG*dG*dG*dA*dT*dG*dA*dT*dG*dA*dG*eT*eG*e[5mC]*eA*eG) [compound 416836] |  |  |  |  |  |  |  |  | % inhibition of human Factor XI mRNA levels (human Factor XI mRNA [1]; [6]): 89% |
| 416837 (antisense e[5mC]*eA*eA*e[5mC]*e[5mC]*dG*dG*dG*dA*dT*dG*dA*dT*dG*dA*eG*eT*eG*e[5mC]*eA) [compound 416837] |  |  |  |  |  |  |  |  | % inhibition of human Factor XI mRNA levels (human Factor XI mRNA [1]; [6]): 90% |
| 416839 (antisense eG*eA*eT*eT*e[5mC]*dT*dT*dT*dG*dG*dG*d[5mC]*d[5mC]*dA*dT*eT*e[5mC]*e[5mC]*eT*eG) [compound 416839] |  |  |  |  |  |  |  |  | % inhibition of human Factor XI mRNA levels (human Factor XI mRNA [1]; [4]): 89% |
| 416840 (antisense eA*eG*eA*eT*eT*d[5mC]*dT*dT*dT*dG*dG*dG*d[5mC]*d[5mC]*dA*eT*eT*e[5mC]*e[5mC]*eT) [compound 416840] |  |  |  |  |  |  |  |  | % inhibition of human Factor XI mRNA levels (human Factor XI mRNA [1]; [4]): 85% |
| 416841 (antisense eG*eA*eG*eA*eT*dT*d[5mC]*dT*dT*dT*dG*dG*dG*d[5mC]*d[5mC]*eA*eT*eT*e[5mC]*e[5mC]) [compound 416841] |  |  |  |  |  |  |  |  | % inhibition of human Factor XI mRNA levels (human Factor XI mRNA [1]; [4]): 87% |
| 416843 (antisense eT*eT*eT*eG*eA*dG*dA*dT*dT*d[5mC]*dT*dT*dT*dG*dG*eG*e[5mC]*e[5mC]*eA*eT) [compound 416843] |  |  |  |  |  |  |  |  | % inhibition of human Factor XI mRNA levels (human Factor XI mRNA [1]; [4]): 89% |
| 416895 (antisense eT*eA*eT*dG*d[5mC]*d[5mC]*d[5mC]*dT*dT*d[5mC]*dA*dT*dG*dT*d[5mC]*dT*dA*eG*eG*eT) [compound 416895] | 39 | 57 | 66 | 71 | 0 | 62 | 70 | 91 |  |
| 416896 (antisense eT*eT*eA*dT*dG*d[5mC]*d[5mC]*d[5mC]*dT*dT*d[5mC]*dA*dT*dG*dT*d[5mC]*dT*eA*eG*eG) [compound 416896] | 22 | 39 | 57 | 81 | 12 | 35 | 81 | 89 |  |
| 416945 (antisense eA*eA*dT*dG*dT*d[5mC]*dT*dT*dT*dG*dT*dT*dG*d[5mC]*dA*eA*eG*e[5mC]*eG*e[5mC]) [compound 416945] | 34 | 45 | 62 | 65 | 48 | 70 | 81 | 88 |  |
| 416969 (antisense eG*e[5mC]*d[5mC]*d[5mC]*dT*dT*d[5mC]*dA*dT*dG*dT*d[5mC]*dT*dA*dG*eG*eT*e[5mC]*e[5mC]*eA) [compound 416969] | 17 | 39 | 61 | 76 | 25 | 34 | 86 | 92 |  |
| 416972 (antisense eT*eA*dT*dG*d[5mC]*d[5mC]*d[5mC]*dT*dT*d[5mC]*dA*dT*dG*dT*d[5mC]*eT*eA*eG*eG*eT) [compound 416972] | 32 | 40 | 60 | 69 | 25 | 30 | 48 | 88 |  |
| 416973 (antisense eT*eT*dA*dT*dG*d[5mC]*d[5mC]*d[5mC]*dT*dT*d[5mC]*dA*dT*dG*dT*e[5mC]*eT*eA*eG*eG) [compound 416973] | 60 | 75 | 85 | 87 | 20 | 48 | 86 | 93 |  |
